One may read the GI50 as the concentration at which growth is held to half of that of the control.

Some test systems named below: MCF7; MDA-N; DU-145; CCRF-CEM; UACC-62; SF-295; SN12C; SNB-19; PC-3; SF-539; OVCAR-8; HCT-116; OVCAR-4; Malme-3M; SK-OV-3; MDA-MB-435; NCI-H23; U-251; RXF 393; NCI-H460.
Holding throughout (assay): DTP human tumour cell line panel, 48 h

SMILES strings stand for the structures.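 Dose response: 5 concentrations. Exposure: 48 h. Format: 96-well plates. Endpoint: linear interpolation; highest concentration if not reached. The concentration for 50% growth inhibition is given as GI50.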 Active and inactive are the calls of the source. No stated cut-off is given here; in the data, active = GI50 up to about 1.1 µM and inactive = higher. Bounds are passed on as bounds.

For `C#C[C@]1(O)CC[C@H]2[C@@H]3CCC4=C/C(=N/NC(=O)c5cccc6c(=O)c7ccccc7[nH]c56)CCC4[C@H]3CC[C@@]21C` (some centres not stated), the GI50 with MCF7 was 43.4 µM (inactive); in the assay with MDA-N it was 50.4 µM (inactive); in the assay with DU-145, > 100 µM (inactive); in the assay with CCRF-CEM, 40.3 µM (inactive); in the assay with UACC-62, 30.8 µM (inactive); in the assay on SF-295, 43.4 µM (inactive). In addition, the GI50 in the assay on SN12C was > 100 µM (inactive); in the assay on SNB-19 it was 86.3 µM (inactive); with PC-3, 34.7 µM (inactive); in the assay on SF-539, 34.7 µM (inactive); in the assay with OVCAR-8, 21.3 µM (inactive); in the assay with HCT-116 it was 53 µM (inactive). Moreover, the GI50 in the assay on OVCAR-4 is 45.8 µM (inactive); in the assay with Malme-3M, 18 µM (inactive); in the assay on SK-OV-3, > 100 µM (inactive); in the assay with MDA-MB-435 it was 38.7 µM (inactive); in the assay with NCI-H23, 27.1 µM (inactive); with U-251, 29.8 µM (inactive).

Turning to `CCCC(=O)C1=C(O)C(Cc2c(O)c(C)c(O)c(C(=O)CCC)c2O)=C(O)C(C)(C)C1=O`, the GI50 is 21.9 µM (inactive) in the assay with MCF7; > 50 µM (inactive) with MDA-N; > 50 µM (inactive) in the assay with DU-145; 0.421 µM (active) in the assay on CCRF-CEM; > 50 µM (inactive) in the assay on UACC-62; 16.9 µM (inactive) with SF-295. Also, the GI50 in the assay on SN12C is > 50 µM (inactive); in the assay on SNB-19 it was 20.7 µM (inactive); in the assay on RXF 393, 17 µM (inactive); with PC-3, 19.1 µM (inactive); in the assay on OVCAR-8 it was > 50 µM (inactive); in the assay with HCT-116, 12.6 µM (inactive). The GI50 was 43.6 µM (inactive) with OVCAR-4; 22.6 µM (inactive) in the assay with SK-OV-3; > 50 µM (inactive) in the assay with MDA-MB-435; 15.8 µM (inactive) with NCI-H23; 14.3 µM (inactive) in the assay on NCI-H460; 22.9 µM (inactive) in the assay on U-251.

Turning to `COc1c2cc([N+](=O)[O-])cc1CN(C(=O)C(F)(F)F)CCOCCN(C(=O)C(F)(F)F)C2`, the GI50 in the assay on MCF7, with MDA-N, with DU-145, in the assay with CCRF-CEM, in the assay with UACC-62 and with SF-295 was > 100 µM (inactive) each time. Besides, the GI50 in the assay on SN12C, in the assay on SNB-19, in the assay on PC-3, in the assay with SF-539, in the assay with OVCAR-8 and in the assay on HCT-116 was > 100 µM (inactive) in each case. Further, the GI50 in the assay on OVCAR-4, in the assay with Malme-3M, in the assay with SK-OV-3, in the assay with MDA-MB-435, in the assay with NCI-H23 and in the assay with NCI-H460 was > 100 µM (inactive) in each case. Also, the GI50 in the assay on U-251 was > 100 µM (inactive).

In the case of `CCOC(OCC)N1C(=O)C2(C(OCC)OCC)CC3C(OC(=O)N3N)c3cccc1c32` (configuration not stated), the GI50 with MCF7 is > 100 µM (inactive); in the assay with MDA-N, > 100 µM (inactive); in the assay with DU-145 it was > 100 µM (inactive); with CCRF-CEM, 54.2 µM (inactive); with UACC-62, > 100 µM (inactive); with SF-295 it was > 100 µM (inactive). Moreover, the GI50 with SN12C, in the assay with SNB-19, with RXF 393, with SF-539, with OVCAR-8 and in the assay with HCT-116 was > 100 µM (inactive) in each case. Besides, the GI50 in the assay with OVCAR-4, in the assay on Malme-3M, with SK-OV-3, with MDA-MB-435, in the assay with NCI-H23 and with NCI-H460 was > 100 µM (inactive) in each case. For the same compound, the GI50 in the assay on U-251 was > 100 µM (inactive).

As to `COc1ccc(/N=N/c2c(C)c(C#N)c(=S)n(C3OC(CO)C(O)C(O)C3O)c2C)cc1` (configuration not stated), the GI50 was 33 µM (inactive) in the assay with MCF7; 30.6 µM (inactive) with MDA-N; 44.7 µM (inactive) with DU-145; 23.7 µM (inactive) with CCRF-CEM; 30.4 µM (inactive) in the assay on UACC-62; 52.1 µM (inactive) in the assay with SF-295. The GI50 in the assay on SNB-19 was 38.3 µM (inactive); with RXF 393, > 100 µM (inactive); in the assay on PC-3 it was 31.5 µM (inactive); with SF-539, 48.3 µM (inactive); in the assay with HCT-116, 31.6 µM (inactive); with OVCAR-4, 57.4 µM (inactive). The GI50 in the assay on SK-OV-3 was > 100 µM (inactive); in the assay on MDA-MB-435, 38.8 µM (inactive); with NCI-H23 it was 35.6 µM (inactive); in the assay with NCI-H460, 35 µM (inactive); with U-251 it was 51.5 µM (inactive).

For `O=C(O)c1ccc(Cc2ccccc2C(=O)O)cc1`, the GI50 in the assay on MCF7, in the assay on MDA-N, in the assay with CCRF-CEM, with UACC-62, with SF-295 and with SN12C was > 100 µM (inactive) each time. Moreover, the GI50 in the assay on SNB-19, in the assay on RXF 393, with PC-3, with SF-539, with OVCAR-8 and in the assay on HCT-116 was > 100 µM (inactive) throughout. Further, the GI50 in the assay with OVCAR-4, in the assay on Malme-3M, with SK-OV-3, in the assay with MDA-MB-435, in the assay with NCI-H23 and with NCI-H460 was > 100 µM (inactive) each time. In addition, the GI50 in the assay with U-251 was > 100 µM (inactive).

As to `CCCn1c(=O)c(N2CCN(c3ccccc3)CC2)nc2sc3ccccc3c21`, the GI50 in the assay on MCF7, in the assay on MDA-N, in the assay on DU-145, in the assay with CCRF-CEM, in the assay with UACC-62 and with SF-295 was > 100 µM (inactive) in each case. Also, the GI50 in the assay on SN12C, in the assay with SNB-19, in the assay with PC-3, in the assay on SF-539, in the assay with OVCAR-8 and in the assay with HCT-116 was > 100 µM (inactive) in each case. For the same compound, the GI50 in the assay on OVCAR-4, with Malme-3M, in the assay with SK-OV-3, in the assay with MDA-MB-435, in the assay with NCI-H23 and in the assay with NCI-H460 was > 100 µM (inactive) throughout. In addition, the GI50 in the assay with U-251 is > 100 µM (inactive).

On to `CCOC(=O)/C=C(\C(=O)OCC)n1ccc(N)nc1=O`, for which the GI50 was > 100 µM (inactive) with MCF7; > 100 µM (inactive) in the assay on MDA-N; > 100 µM (inactive) with DU-145; 22.4 µM (inactive) in the assay on CCRF-CEM; > 100 µM (inactive) in the assay on UACC-62; > 100 µM (inactive) in the assay on SF-295. Further, the GI50 with SN12C, with SNB-19, with PC-3, in the assay on SF-539, in the assay on OVCAR-8 and in the assay on HCT-116 was > 100 µM (inactive) throughout. In addition, the GI50 in the assay on OVCAR-4 is 72.9 µM (inactive); with Malme-3M it was 45.7 µM (inactive); in the assay on SK-OV-3, > 100 µM (inactive); in the assay on MDA-MB-435, 94.6 µM (inactive); with NCI-H23, > 100 µM (inactive); with NCI-H460, > 100 µM (inactive). Besides, the GI50 with U-251 was 72.3 µM (inactive).

Turning to `Cc1ccc(C(=O)O)c(/C=C2\Cc3cc(C)cc(C)c3C2=O)c1`, the GI50 is 69.3 µM (inactive) in the assay on MCF7; 56.5 µM (inactive) with MDA-N; > 100 µM (inactive) in the assay on DU-145; 35.7 µM (inactive) with CCRF-CEM; 76 µM (inactive) with UACC-62; > 100 µM (inactive) in the assay on SF-295. For the same compound, the GI50 with SN12C is 49.4 µM (inactive); with SNB-19 it was > 100 µM (inactive); in the assay on RXF 393 it was 67.3 µM (inactive); in the assay with PC-3, 48.6 µM (inactive); in the assay with SF-539, 75.9 µM (inactive); in the assay on OVCAR-8, 82.2 µM (inactive). Further, the GI50 in the assay with HCT-116 was 53.7 µM (inactive); in the assay on Malme-3M, 96.4 µM (inactive); in the assay on NCI-H460, 49.2 µM (inactive); with U-251, 78.5 µM (inactive).

For the compound `Cn1c(=O)cc(Nc2ccc(N)cc2)[nH]c1=O`, the GI50 was 49.4 µM (inactive) in the assay on MCF7; > 100 µM (inactive) with MDA-N; > 100 µM (inactive) with CCRF-CEM; > 100 µM (inactive) in the assay with UACC-62; > 100 µM (inactive) in the assay on SF-295; > 100 µM (inactive) in the assay with SN12C. Further, the GI50 in the assay on SNB-19, in the assay with RXF 393, with PC-3, in the assay on SF-539, in the assay on OVCAR-8 and in the assay on HCT-116 was > 100 µM (inactive) throughout. Besides, the GI50 in the assay on OVCAR-4, in the assay on Malme-3M, with SK-OV-3, in the assay with MDA-MB-435, in the assay on NCI-H23 and in the assay with NCI-H460 was > 100 µM (inactive) in each case. In the assay on U-251, the GI50 is > 100 µM (inactive).

Take `Cc1ccc(S(=O)(=O)NC(=O)NC(C(=O)O)C(C)O)cc1` (configuration not stated): the GI50 in the assay with MCF7, in the assay with MDA-N, in the assay on DU-145, in the assay on CCRF-CEM, in the assay on UACC-62 and with SF-295 was > 100 µM (inactive) each time. In addition, the GI50 in the assay with SN12C, in the assay on SNB-19, in the assay on RXF 393, in the assay on PC-3, in the assay on SF-539 and in the assay with OVCAR-8 was > 100 µM (inactive) throughout. Also, the GI50 with HCT-116, with OVCAR-4, with Malme-3M, with SK-OV-3, in the assay on NCI-H23 and in the assay on NCI-H460 was > 100 µM (inactive) throughout. For the same compound, the GI50 with U-251 is > 100 µM (inactive).

Source of the values: ChEMBL document CHEMBL1201862, “PubChem BioAssay data set” (2004).
